Calls of active or inactive are those of the source.
Columns and labels:
[1] = biological target: Paired box protein Pax-8 (Homo sapiens, UniProt Q06710); assay: inhibitors of PAX8-driven TPO luciferase reporter, dose response, RMG-I cells, cherry-pick (AID 687027); type: functional, cell-based;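 further: luciferase reporter driven by Pax8 target thyroperoxidase promoter measured by SteadyGlo luminescence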
[2] = HEK293T cytotoxicity, dose response, cytotoxicity control for miR-122 modulator project, cell-based, activator set, cherry-pick (AID 720690); type: functional;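 further: HEK293T human cells scored for general mammalian cytotoxicity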
[3] = miR-122 activators in hepatoma reporter cells, dose response, cell-based, Huh7 psiCHECK-miR122, Renilla luciferase, cherry-picked (AID 651956); type: functional;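 further: huh7 hepatoma cells stably carrying a psiCHECK-2 miR-122 sensor plasmid; renilla luciferase signal reporting endogenous miR-122 activity after 48 h compound exposure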
[4] = biological target: Caspase-6 (Homo sapiens, UniProt P55212); assay: human caspase-6 inhibitors, dose response, biochemical, VEID-R110 fluorescence, cherry-pick (AID 720632)
Chain of Caspase-6 (P55212 24-179 limits assumed): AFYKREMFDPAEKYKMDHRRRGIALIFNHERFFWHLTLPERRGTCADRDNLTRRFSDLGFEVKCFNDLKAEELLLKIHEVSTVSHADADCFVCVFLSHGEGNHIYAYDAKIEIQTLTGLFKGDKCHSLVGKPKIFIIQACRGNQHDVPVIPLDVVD
Chain of Caspase-6 (P55212 194-293 limits assumed): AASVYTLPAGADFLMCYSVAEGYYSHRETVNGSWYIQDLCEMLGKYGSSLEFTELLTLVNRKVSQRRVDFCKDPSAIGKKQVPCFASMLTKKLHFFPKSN

[5] = THP-1 cell cytotoxicity, dose response, cytotoxicity control for Vif-APOBEC3G degradation inhibitor project, THP-1 cells (AID 1117359); type: functional; settings: Human immunodeficiency virus 1, THP-1
[6] = biological target: Caspase-8 (Homo sapiens, UniProt Q14790); assay: caspase-8 inhibition counter-screen, dose response, selectivity assay for caspase-6 inhibitor project, biochemical, Z-IETD-R110 fluorescence, cherry-picked samples (AID 743294)
Chain of Caspase-8 (Q14790 217-374 limits assumed): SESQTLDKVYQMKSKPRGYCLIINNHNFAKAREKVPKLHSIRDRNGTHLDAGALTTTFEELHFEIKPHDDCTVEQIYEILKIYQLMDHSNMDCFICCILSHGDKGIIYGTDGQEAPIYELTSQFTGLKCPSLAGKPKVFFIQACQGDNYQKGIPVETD
Chain of Caspase-8 (Q14790 385-479 limits assumed): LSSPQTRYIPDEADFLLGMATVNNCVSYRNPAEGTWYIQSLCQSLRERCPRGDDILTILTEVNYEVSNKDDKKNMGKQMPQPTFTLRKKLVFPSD

[7] = biological target: Caspase-7 (Homo sapiens, UniProt P55210); assay: human caspase-7 inhibitors, dose response, selectivity assay for caspase-6 inhibitor project, biochemical, DEVD-R110 fluorescence, cherry-pick (AID 743295)
Chain of Caspase-7 (P55210 24-198 limits assumed): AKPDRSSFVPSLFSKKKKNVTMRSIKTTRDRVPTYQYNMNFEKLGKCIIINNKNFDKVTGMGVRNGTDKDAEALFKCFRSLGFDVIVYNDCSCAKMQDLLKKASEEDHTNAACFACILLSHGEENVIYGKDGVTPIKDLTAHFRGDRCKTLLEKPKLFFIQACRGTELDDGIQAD
Chain of Caspase-7 (P55210 207-303 limits assumed): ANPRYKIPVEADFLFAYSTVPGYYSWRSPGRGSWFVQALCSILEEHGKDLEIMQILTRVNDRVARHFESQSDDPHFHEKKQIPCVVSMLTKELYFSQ

[8] = biological target: Protein Tat (Human immunodeficiency virus type 1 group M subtype B (isolate HXB2)(HIV-1), UniProt P04608); type: functional;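 further: tat binding to TAR RNA read out by fluorescence polarization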
Chain of Protein Tat (P04608 whole entry): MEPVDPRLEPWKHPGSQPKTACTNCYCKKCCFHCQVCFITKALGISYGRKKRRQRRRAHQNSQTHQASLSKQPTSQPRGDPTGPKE

[9] = T. cruzi growth inhibition in host cells, dose response, cell-based, plate reader, dry powder, set 2 (AID 652275); type: functional
[10] = LGR2 antagonists, dose response, cell-based, HEK293, CRE-luciferase reporter, cherry pick (AID 743342); type: functional
[11] = biological target: Fructose-bisphosphate aldolase (Mycobacterium tuberculosis, UniProt P9WQA3); assay: Fluorescence-based biochemical high throughput dose response assay for inhibitors of the fructose-bisphosphate aldolase (FBA) of M. tuberculosis.; type: functional
Chain of Fructose-bisphosphate aldolase (P9WQA3 whole entry): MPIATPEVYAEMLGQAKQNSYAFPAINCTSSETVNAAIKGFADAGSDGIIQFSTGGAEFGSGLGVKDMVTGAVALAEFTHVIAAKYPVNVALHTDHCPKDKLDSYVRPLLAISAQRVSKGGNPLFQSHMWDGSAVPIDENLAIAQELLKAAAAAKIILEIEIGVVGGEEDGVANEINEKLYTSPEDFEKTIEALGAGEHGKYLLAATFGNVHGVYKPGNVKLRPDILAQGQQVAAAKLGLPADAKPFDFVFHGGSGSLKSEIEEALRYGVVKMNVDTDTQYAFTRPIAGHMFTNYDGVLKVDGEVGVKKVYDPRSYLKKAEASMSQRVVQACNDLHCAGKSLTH

[12] = biological target: Albumin (Bos taurus, UniProt P02769); assay: Counterscreen for inhibitors of T-cell receptor (TCR)-CD3 interaction: Fluorescence-based biochemical high throughput dose response assay to identify inhibitors of T-cell receptor (TCR)-CD3 interaction using a TAMRA-labeled BSA probe.; type: functional
Chain of Albumin (P02769 whole entry, the tested form may be a part): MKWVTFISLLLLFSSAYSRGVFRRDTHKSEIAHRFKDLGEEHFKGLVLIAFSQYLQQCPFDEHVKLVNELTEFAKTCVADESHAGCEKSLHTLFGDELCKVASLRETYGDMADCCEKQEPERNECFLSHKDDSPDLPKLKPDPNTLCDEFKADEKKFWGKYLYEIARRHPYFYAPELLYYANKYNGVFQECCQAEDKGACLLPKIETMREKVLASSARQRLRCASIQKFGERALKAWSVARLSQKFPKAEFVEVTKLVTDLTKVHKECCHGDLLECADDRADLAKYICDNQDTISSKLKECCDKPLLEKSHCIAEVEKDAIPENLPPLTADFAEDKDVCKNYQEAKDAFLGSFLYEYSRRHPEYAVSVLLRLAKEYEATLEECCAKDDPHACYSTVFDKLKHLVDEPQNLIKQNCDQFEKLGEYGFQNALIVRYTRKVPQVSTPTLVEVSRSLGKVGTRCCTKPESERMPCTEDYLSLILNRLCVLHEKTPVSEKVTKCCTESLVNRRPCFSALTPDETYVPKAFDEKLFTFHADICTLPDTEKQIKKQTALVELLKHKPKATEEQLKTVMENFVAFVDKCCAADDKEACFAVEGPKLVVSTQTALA

[13] = biological target: T1, Fatty acid synthase (Homo sapiens, UniProt P49327); assay: FAS thioesterase domain inhibitors, dose response, biochemical, kinetic fluorescence intensity (AID 624326); type: functional;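 further: rate of fluorescence rise from hydrolysis of a fluorogenic O-methyl fluorescein ester substrate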
T1 sequence (P49327 whole entry, the tested form may be a part): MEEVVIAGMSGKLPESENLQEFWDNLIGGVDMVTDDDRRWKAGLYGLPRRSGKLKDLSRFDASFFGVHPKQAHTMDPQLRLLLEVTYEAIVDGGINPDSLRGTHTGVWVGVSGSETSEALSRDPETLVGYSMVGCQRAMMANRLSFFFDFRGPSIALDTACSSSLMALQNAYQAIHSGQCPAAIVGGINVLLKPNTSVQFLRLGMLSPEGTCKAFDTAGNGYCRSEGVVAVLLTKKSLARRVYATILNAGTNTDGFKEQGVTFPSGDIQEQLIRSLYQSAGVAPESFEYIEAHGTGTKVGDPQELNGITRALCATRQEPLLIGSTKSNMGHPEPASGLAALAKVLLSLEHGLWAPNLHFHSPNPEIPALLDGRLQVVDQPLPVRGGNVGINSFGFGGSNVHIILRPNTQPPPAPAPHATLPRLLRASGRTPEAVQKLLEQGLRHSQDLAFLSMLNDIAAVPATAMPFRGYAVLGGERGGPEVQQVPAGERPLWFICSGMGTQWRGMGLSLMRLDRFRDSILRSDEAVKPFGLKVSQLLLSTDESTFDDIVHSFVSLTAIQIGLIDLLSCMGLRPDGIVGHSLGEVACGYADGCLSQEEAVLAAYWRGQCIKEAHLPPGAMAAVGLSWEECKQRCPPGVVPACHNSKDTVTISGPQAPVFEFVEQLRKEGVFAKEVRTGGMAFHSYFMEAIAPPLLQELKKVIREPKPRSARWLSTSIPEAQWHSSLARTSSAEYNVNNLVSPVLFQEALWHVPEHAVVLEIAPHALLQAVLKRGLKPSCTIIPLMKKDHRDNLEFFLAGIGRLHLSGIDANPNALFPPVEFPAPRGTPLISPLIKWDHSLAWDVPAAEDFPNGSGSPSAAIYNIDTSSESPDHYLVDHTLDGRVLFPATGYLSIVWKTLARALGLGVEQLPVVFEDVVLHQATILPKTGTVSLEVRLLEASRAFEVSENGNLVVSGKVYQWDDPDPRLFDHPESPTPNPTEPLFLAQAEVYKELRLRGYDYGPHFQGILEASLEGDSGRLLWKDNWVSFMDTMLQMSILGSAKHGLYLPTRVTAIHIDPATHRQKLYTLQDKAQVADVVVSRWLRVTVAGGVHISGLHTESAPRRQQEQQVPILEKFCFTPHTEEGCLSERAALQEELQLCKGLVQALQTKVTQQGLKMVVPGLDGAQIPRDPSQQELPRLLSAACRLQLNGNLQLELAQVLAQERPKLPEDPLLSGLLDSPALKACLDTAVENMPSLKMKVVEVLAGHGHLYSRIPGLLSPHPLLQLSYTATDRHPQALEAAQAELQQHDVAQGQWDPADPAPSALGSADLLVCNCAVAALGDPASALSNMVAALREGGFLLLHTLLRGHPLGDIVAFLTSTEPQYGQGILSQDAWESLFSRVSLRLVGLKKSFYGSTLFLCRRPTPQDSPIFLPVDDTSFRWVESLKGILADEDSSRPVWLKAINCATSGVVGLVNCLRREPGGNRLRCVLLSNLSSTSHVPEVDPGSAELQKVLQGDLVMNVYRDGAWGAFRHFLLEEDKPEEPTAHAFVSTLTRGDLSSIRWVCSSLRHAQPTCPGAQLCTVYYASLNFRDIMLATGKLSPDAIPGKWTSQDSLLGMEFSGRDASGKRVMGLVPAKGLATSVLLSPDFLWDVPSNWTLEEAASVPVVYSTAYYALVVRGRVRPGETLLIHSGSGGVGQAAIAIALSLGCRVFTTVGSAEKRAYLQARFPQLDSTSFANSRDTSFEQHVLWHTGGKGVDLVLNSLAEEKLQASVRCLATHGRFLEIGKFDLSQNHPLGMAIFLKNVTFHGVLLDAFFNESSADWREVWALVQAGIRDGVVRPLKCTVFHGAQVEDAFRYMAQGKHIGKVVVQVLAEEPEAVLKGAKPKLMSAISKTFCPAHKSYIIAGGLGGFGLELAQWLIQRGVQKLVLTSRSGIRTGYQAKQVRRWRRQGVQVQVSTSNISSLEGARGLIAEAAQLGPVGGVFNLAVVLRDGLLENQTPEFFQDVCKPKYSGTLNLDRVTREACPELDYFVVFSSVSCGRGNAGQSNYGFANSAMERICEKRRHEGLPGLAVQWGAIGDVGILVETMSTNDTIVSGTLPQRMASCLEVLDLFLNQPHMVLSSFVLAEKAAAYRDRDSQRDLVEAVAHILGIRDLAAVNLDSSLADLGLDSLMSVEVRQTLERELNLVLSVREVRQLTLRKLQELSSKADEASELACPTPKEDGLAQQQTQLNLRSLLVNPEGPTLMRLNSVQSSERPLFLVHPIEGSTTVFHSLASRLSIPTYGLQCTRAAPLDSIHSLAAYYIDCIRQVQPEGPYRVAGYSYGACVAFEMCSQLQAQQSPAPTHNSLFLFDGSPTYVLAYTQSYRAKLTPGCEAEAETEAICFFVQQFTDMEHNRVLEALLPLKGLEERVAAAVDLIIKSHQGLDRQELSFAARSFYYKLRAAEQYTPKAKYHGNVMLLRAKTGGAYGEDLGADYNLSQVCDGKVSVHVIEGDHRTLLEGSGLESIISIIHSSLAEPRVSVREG

[14] = biological target: T1, Fatty acid synthase; assay: FAS thioesterase domain inhibitors, dose response, biochemical, endpoint fluorescence intensity, uHTS hits (AID 624327); type: functional;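 further: fluorescence from hydrolysis of an O-methyl fluorescein acyl ester substrate by the enzyme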

Chain of Paired box protein Pax-8 (Q06710 whole entry): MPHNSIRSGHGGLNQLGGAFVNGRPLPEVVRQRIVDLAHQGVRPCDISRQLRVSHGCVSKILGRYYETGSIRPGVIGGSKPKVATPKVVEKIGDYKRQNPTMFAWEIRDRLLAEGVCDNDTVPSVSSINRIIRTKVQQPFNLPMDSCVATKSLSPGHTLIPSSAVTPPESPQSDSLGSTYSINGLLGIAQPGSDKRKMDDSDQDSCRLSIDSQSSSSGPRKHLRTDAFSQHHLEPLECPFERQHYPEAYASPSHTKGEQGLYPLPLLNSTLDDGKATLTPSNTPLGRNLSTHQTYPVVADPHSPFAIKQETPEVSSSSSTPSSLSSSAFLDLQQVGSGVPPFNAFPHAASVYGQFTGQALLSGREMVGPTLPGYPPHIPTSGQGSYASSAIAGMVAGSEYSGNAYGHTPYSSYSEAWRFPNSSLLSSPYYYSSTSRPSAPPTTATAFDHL

For `CNC[C@@H]1Oc2cc(C#CC3CCCCC3)ccc2S(=O)(=O)N([C@@H](C)CO)C[C@@H]1C`, the AC50 [1] was 25.3 µM (active), the AC50 [2] was 19.4 µM (active) and the AC50 [3] was 1.39 µM (active).
In the case of `O=C(c1cccc(-n2cccc2)c1)N1CCN(S(=O)(=O)c2ccccc2)CC1`, the AC50 [4] is reported as 0.433 µM (active), the CC50 [5] is reported as > 40 µM (active) and the AC50 [6] is reported as 28.1 µM (active). The AC50 [7] was > 70 µM (inactive) and the IC50 [8] was > 100 µM (active).
With `CC(C)N1CC2(CN(Cc3ccccc3Cl)C2)Oc2c(NC(=O)c3ccncc3)cccc2C1=O` the AC50 [9] was 0.463 µM (active).
With `C[C@H]1CCCCO[C@H](CN(C)C(=O)Nc2cccc3ccccc23)[C@@H](C)CN([C@@H](C)CO)C(=O)c2cc(NS(=O)(=O)c3cn(C)cn3)ccc2O1` the AC50 [10] was 47 µM (active).
With `COc1ccc2nc(C)cc(C(=O)O)c2c1` the IC50 [11] was 1.16 µM (active).
For `COc1cc([N+](=O)[O-])cc(/C=N/NC(=O)c2cc(C)nc3ccccc23)c1O`, the IC50 [12] was > 94.1 µM (inactive), the IC50 [13] was 11.7 µM (active) and the IC50 [14] was 15.5 µM (active).
